Some results are limits rather than exact numbers.

One assay concerns the target T1, Human M3 receptor (Homo sapiens, UniProt P20309).
T1 construct: purchased Perkin Elmer
The experiment in a line: M3 Receptor Radioligand Binding Assay. The following applies: human M3 receptor membranes, [3H]-N-methyl scopolamine; read-out: M3 binding affinity (Ki class). On the procedure:
Biological Characterization M3 Receptor Radioligand Binding Assay
The assay was carried out in 96-well polypropylene plates in a volume of 250 ul. […] The final assay concentration of DMSO was 0.5% (v/v). The plates were sealed and incubated for 2 h at room temperature on an orbital shaker (slow speed). Membranes were harvested onto 96-well unifilter GF/C filter plates pre-treated with 0.5% polyethyleneimine (v/v), using a filter manifold, washed four times with 200 ul of assay buffer. The plates were dried before addition of 50 μl of microscint-0, sealed then read in a Trilux Microbeta scintillation counter.

A further assay addresses T2, Human β2 adrenoceptor (Homo sapiens, UniProt P07550).
T2 construct: purchased Perkin Elmer
The experiment in a line: β2 Adrenoceptor Radioligand Binding Assay. The following applies: human β2 adrenoceptor membranes, 125-I Cyanopindolol; read-out: B2 binding affinity (Ki class). On the procedure: β2 Adrenoceptor Radioligand Binding Assay
The assay was carried out in 96-well polypropylene plates in a volume of 200 ul. The assay buffer used was 25 mM HEPES, 0.5% BSA (w/v), 1 mM EDTA, 0.02% ascorbic acid (v/v), (pH 7.4). The final assay concentration of DMSO was 0.5% (v/v). The plates were sealed and incubated for 1 h at room temperature on an orbital shaker (slow speed). Membranes were harvested onto 96-well unifilter GF/C filter plates pre-treated with 0.5% polyethyleneimine (v/v), using a filter manifold, washed six times with 200 ul of wash buffer containing 10 mM HEPES and 500 mM NaCl. The plates were dried before addition of 50 μl of microscint-0, sealed then read in a Trilux Microbeta scintillation counter. IC50 values are determined from competition curves using a non-linear curve fitting program. Ki values were calculated from IC50 values by the Cheng and Prusoff equation.

T1 sequence (P20309 whole entry): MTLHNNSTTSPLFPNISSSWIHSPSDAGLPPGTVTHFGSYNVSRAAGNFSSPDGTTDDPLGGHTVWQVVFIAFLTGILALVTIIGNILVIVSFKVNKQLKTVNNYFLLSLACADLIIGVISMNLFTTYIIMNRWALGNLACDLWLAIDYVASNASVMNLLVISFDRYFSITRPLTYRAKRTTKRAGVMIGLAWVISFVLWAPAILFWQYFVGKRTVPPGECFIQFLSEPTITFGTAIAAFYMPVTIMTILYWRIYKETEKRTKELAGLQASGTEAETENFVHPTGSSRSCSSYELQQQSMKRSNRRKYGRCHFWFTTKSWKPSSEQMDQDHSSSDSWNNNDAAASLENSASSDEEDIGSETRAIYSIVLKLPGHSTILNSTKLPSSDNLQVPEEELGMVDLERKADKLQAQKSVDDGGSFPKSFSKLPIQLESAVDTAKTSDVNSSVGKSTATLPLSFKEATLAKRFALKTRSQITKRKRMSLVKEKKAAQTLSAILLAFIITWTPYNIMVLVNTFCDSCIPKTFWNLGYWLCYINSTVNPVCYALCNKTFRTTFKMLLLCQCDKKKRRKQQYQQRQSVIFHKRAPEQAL
T2 sequence (P07550 whole entry): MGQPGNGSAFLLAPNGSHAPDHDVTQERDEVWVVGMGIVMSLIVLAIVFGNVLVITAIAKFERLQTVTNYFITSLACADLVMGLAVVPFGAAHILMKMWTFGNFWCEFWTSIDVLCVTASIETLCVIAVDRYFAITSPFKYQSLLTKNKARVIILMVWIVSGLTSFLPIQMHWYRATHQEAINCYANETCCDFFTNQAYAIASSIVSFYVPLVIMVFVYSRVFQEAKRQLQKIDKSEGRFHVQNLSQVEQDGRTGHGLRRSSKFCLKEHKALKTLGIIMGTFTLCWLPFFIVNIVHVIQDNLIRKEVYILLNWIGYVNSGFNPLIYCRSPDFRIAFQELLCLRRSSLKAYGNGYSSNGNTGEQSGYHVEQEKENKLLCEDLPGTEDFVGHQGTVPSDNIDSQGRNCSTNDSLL

As to `O=C(c1ccc(OCCCCNC[C@H](O)c2ccc(O)c3[nH]c(=O)ccc23)cc1)N1CC(C(=O)O[C@H]2CN3CCC2CC3)(c2ccccc2)C1` [Compound 18A, (R)-Quinuclidin-3-yl 1-(4-(4-(((R)-2-hydroxy-2-(8-hydroxy-2-oxo-1,2-dihydroquinolin-5-yl)ethyl)amino)butoxy)benzoyl)-3-phenylazetidine-3-carboxylate], the inhibitory constant (Ki) (in general, a measure of affinity in units of concentration, obtained from inhibition or displacement) on Human M3 receptor was 1 to 10 nM; on Human β2 adrenoceptor, under 1 nM.
In the same order, the values of `O=C(NCCCCNC[C@H](O)c1ccc(O)c2[nH]c(=O)ccc12)c1ccc(C(=O)N2CCC(C(=O)O[C@H]3CN4CCC3CC4)(c3ccccc3)CC2)cc1` [Compound 19, (R)-Quinuclidin-3-yl 1-(4-((4-(((R)-2-hydroxy-2-(8-hydroxy-2-oxo-1,2-dihydroquinolin-5-yl)ethyl)amino)butyl)carbamoyl)benzoyl)-4-phenylpiperidine-4-carboxylate] are 1 to 10 nM and under 1 nM.
For `O=C(NCCCNC[C@H](O)c1ccc(O)c2[nH]c(=O)ccc12)c1ccc(COc2ccc(C(=O)N3CC(C(=O)O[C@H]4CN5CCC4CC5)(c4ccccc4)C3)cc2)cc1` [Compound 19A, (R)-Quinuclidin-3-yl 1-(4-((4-((3-(((R)-2-hydroxy-2-(8-hydroxy-2-oxo-1,2-dihydroquinolin-5-yl)ethyl)amino)propyl)carbamoyl)benzyl)oxy)benzoyl)-3-phenylazetidine-3-carboxylate], the Ki on Human M3 receptor and on Human β2 adrenoceptor was under 1 nM in each case.
Consider `O=C(c1ccc(CCNC[C@H](O)c2ccc(O)c3[nH]c(=O)ccc23)cc1)N1CCC(C(=O)O[C@H]2CN3CCC2CC3)(c2ccccc2)CC1` [Compound 20, (R)-Quinuclidin-3-yl 1-(4-(2-(((R)-2-hydroxy-2-(8-hydroxy-2-oxo-1,2-dihydroquinolin-5-yl)ethyl)amino)ethyl)benzoyl)-4-phenylpiperidine-4-carboxylate], for which the inhibition constant (Ki) was over 10 nM at Human M3 receptor and under 1 nM at Human β2 adrenoceptor.
In the same order, the values of `COc1cc(CNC(=O)c2ccc(C(=O)N3CC(C(=O)O[C@H]4CN5CCC4CC5)(c4ccccc4)C3)cc2)ccc1CNC[C@H](O)c1ccc(O)c2[nH]c(=O)ccc12` [Compound 20A, (R)-Quinuclidin-3-yl 1-(4-((4-((((R)-2-hydroxy-2-(8-hydroxy-2-oxo-1,2-dihydroquinolin-5-yl)ethyl)amino)methyl)-3-methoxybenzyl)carbamoyl)benzoyl)-3-phenylazetidine-3-carboxylate] are under 1 nM and under 1 nM.
In the same order, the values of `O=C(NCCCCNC[C@H](O)c1ccc(O)c2[nH]c(=O)ccc12)c1ccc(C(=O)N2CCC(C(=O)O[C@H]3CN4CCC3CC4)(c3ccccc3)CC2)s1` [Compound 21, (R)-Quinuclidin-3-yl 1-(5-((4-(((R)-2-hydroxy-2-(8-hydroxy-2-oxo-1,2-dihydroquinolin-5-yl)ethyl)amino)butyl)carbamoyl)thiophene-2-carbonyl)-4-phenylpiperidine-4-carboxylate] are 1 to 10 nM and under 1 nM.
In the same order, the values of `O=C(c1ccc(OCc2cccc(OCCCCNC[C@H](O)c3ccc(O)c4[nH]c(=O)ccc34)c2)cc1)N1CCC(C(=O)O[C@H]2CN3CCC2CC3)(c2ccccc2)CC1` [Compound 22, (R)-Quinuclidin-3-yl 1-(4-((3-(4-(((R)-2-hydroxy-2-(8-hydroxy-2-oxo-1,2-dihydroquinolin-5-yl)ethyl)amino)butoxy)benzyl)oxy)benzoyl)-4-phenylpiperidine-4-carboxylate] are 1 to 10 nM and under 1 nM.
With `O=C(NCc1ccc(CNC[C@H](O)c2ccc(O)c3[nH]c(=O)ccc23)cc1)c1ccc(C(=O)N2CCC(C(=O)O[C@H]3CN4CCC3CC4)(c3ccccc3)CC2)cc1` [Compound 23, (R)-Quinuclidin-3-yl 1-(4-((4-((((R)-2-hydroxy-2-(8-hydroxy-2-oxo-1,2-dihydroquinolin-5-yl)ethyl)amino)methyl)benzyl)carbamoyl)benzoyl)-4-phenylpiperidine-4-carboxylate], the Ki at Human M3 receptor was under 1 nM; at Human β2 adrenoceptor, 1 to 10 nM.
In the same order, the values of `O=C(c1ccc(OCc2ccc(CNC[C@H](O)c3ccc(O)c4[nH]c(=O)ccc34)cc2)cc1)N1CCC(C(=O)O[C@H]2CN3CCC2CC3)(c2ccccc2)CC1` [Compound 24, (R)-Quinuclidin-3-yl 1-(4-((4-((((R)-2-hydroxy-2-(8-hydroxy-2-oxo-1,2-dihydroquinolin-5-yl)ethyl)amino)methyl)benzyl)oxy)benzoyl)-4-phenylpiperidine-4-carboxylate] are under 1 nM and under 1 nM.
In the same order, the values of `CCN(CCCNC[C@H](O)c1ccc(O)c2[nH]c(=O)ccc12)C(=O)c1ccc(C(=O)N2CCC(C(=O)O[C@H]3CN4CCC3CC4)(c3ccccc3)CC2)cc1` [Compound 25, (R)-Quinuclidin-3-yl 1-(4-(ethyl(3-(((R)-2-hydroxy-2-(8-hydroxy-2-oxo-1,2-dihydroquinolin-5-yl)ethyl)amino)propyl)carbamoyl)benzoyl)-4-phenylpiperidine-4-carboxylate] are 1 to 10 nM and 1 to 10 nM.
In the same order, the values of `O=C(c1ccc(OCc2ccc(CCNC[C@H](O)c3ccc(O)c4[nH]c(=O)ccc34)cc2)cc1)N1CCC(C(=O)O[C@H]2CN3CCC2CC3)(c2ccccc2)CC1` [Compound 26, (R)-Quinuclidin-3-yl 1-(4-((4-(2-(((R)-2-hydroxy-2-(8-hydroxy-2-oxo-1,2-dihydroquinolin-5-yl)ethyl)amino)ethyl)benzyl)oxy)benzoyl)-4-phenylpiperidine-4-carboxylate] are under 1 nM and under 1 nM.
On to `CN(CCCNC[C@H](O)c1ccc(O)c2[nH]c(=O)ccc12)C(=O)c1ccc(C(=O)N2CCC(C(=O)O[C@H]3CN4CCC3CC4)(c3ccccc3)CC2)s1` [Compound 27, (R)-Quinuclidin-3-yl 1-(5-((3-(((R)-2-hydroxy-2-(8-hydroxy-2-oxo-1,2-dihydroquinolin-5-yl)ethyl)amino)propyl)(methyl)carbamoyl)thiophene-2-carbonyl)-4-phenylpiperidine-4-carboxylate], for which the results for the inhibitory constant (Ki) at Human M3 receptor and at Human β2 adrenoceptor were 1 to 10 nM and under 1 nM, respectively.
In the same order, the values of `O=C(c1ccc(C(=O)N(CCCNC[C@H](O)c2ccc(O)c3[nH]c(=O)ccc23)Cc2ccccc2)s1)N1CCC(C(=O)O[C@H]2CN3CCC2CC3)(c2ccccc2)CC1` [Compound 28, (R)-Quinuclidin-3-yl 1-(5-(benzyl(3-(((R)-2-hydroxy-2-(8-hydroxy-2-oxo-1,2-dihydroquinolin-5-yl)ethyl)amino)propyl)carbamoyl)thiophene-2-carbonyl)-4-phenylpiperidine-4-carboxylate] are 1 to 10 nM and under 1 nM.
In the same order, the values of `CCN(CCCNC[C@H](O)c1ccc(O)c2[nH]c(=O)ccc12)C(=O)c1ccc(C(=O)N2CCC(C(=O)O[C@H]3CN4CCC3CC4)(c3ccccc3)CC2)s1` [Compound 29, (R)-Quinuclidin-3-yl 1-(5-(ethyl(3-(((R)-2-hydroxy-2-(8-hydroxy-2-oxo-1,2-dihydroquinolin-5-yl)ethyl)amino)propyl)carbamoyl)thiophene-2-carbonyl)-4-phenylpiperidine-4-carboxylate] are 1 to 10 nM and under 1 nM.
In the same order, the values of `O=C(Cc1ccc(OCCCCNC[C@H](O)c2ccc(O)c3[nH]c(=O)ccc23)cc1)N1CCC(C(=O)O[C@H]2CN3CCC2CC3)(c2ccccc2)CC1` [Compound 30, (R)-Quinuclidin-3-yl 1-(2-(4-(4-(((R)-2-hydroxy-2-(8-hydroxy-2-oxo-1,2-dihydroquinolin-5-yl)ethyl)amino)butoxy)phenyl)acetyl)-4-phenylpiperidine-4-carboxylate] are 1 to 10 nM and under 1 nM.
On to `O=C(NCCC(=O)N1CCC(C(=O)O[C@H]2CN3CCC2CC3)(c2ccccc2)CC1)c1ccc(CNC[C@H](O)c2ccc(O)c3[nH]c(=O)ccc23)cc1` [Compound 31, (R)-Quinuclidin-3-yl 1-(3-(4-((((R)-2-hydroxy-2-(8-hydroxy-2-oxo-1,2-dihydroquinolin-5-yl)ethyl)amino)methyl)benzamido)propanoyl)-4-phenylpiperidine-4-carboxylate], for which the Ki was 1 to 10 nM at Human M3 receptor and under 1 nM on Human β2 adrenoceptor.
For `O=C(CCc1ccc(OCCCCNC[C@H](O)c2ccc(O)c3[nH]c(=O)ccc23)cc1)N1CCC(C(=O)O[C@H]2CN3CCC2CC3)(c2ccccc2)CC1` [Compound 32, (R)-Quinuclidin-3-yl 1-(3-(4-(4-(((R)-2-hydroxy-2-(8-hydroxy-2-oxo-1,2-dihydroquinolin-5-yl)ethyl)amino)butoxy)phenyl)propanoyl)-4-phenylpiperidine-4-carboxylate], the inhibitory constant (Ki) at Human M3 receptor and on Human β2 adrenoceptor was under 1 nM each time.

The values are drawn from US9662323B2, “Compounds having muscarinic receptor antagonist and beta2 adrenergic receptor agonist activity” (CHIESI FARMACEUTICI S.p.A., priority 2015, dated 2017).
